Test results: ChEMBL document CHEMBL3608258, “Anti-influenza activities of polyphenols from the medicinal mushroom Phellinus baumii” (Bioorg Med Chem Lett, 2015)
Active and inactive are the calls of the source. The rule behind the calls is not given here.

Columns and labels:
[1] = Retention time of the compound; type: physicochemical
[2] = target: Neuraminidase (Influenza A virus) (UniProt B4URF0); assay: (§1) Inhibition of recombinant Influenza A virus H1N1 neuraminidase
Neuraminidase [3] = target: T1, Neuraminidase (Influenza A virus, UniProt B4URF0); assay: as §1
[4] = target: Neuraminidase (Influenza A virus) (UniProt B4URF0); assay: (§2) Inhibition of recombinant Influenza A virus H5N1 neuraminidase
Neuraminidase [5] = target: T1, Neuraminidase; assay: as §2
Neuraminidase [6] = target: T1, Neuraminidase; assay: Inhibition of recombinant Influenza A virus H3N2 neuraminidase
[7] = target: Neuraminidase (Influenza A virus) (UniProt B4URF0); assay: Noncompetitive inhibition of recombinant Influenza A virus H1N1 neuraminidase using MU-NANA as substrate
[8] = target: Neuraminidase (Influenza A virus) (UniProt B4URF0); assay: Ratio of hispidin IC50 to compound IC50 for recombinant Influenza A virus H1N1 neuraminidase
[9] = Cytotoxicity against MDCK cells by SRB assay; type: cell-based, Canis lupus familiaris; conditions: dog
Influenza A virus [10] = assay: Antiviral activity against Influenza A virus H1N1 infected in MDCK cells assessed as inhibition of virus-induced cytopathic effect by SRB assay; type: functional, organism-based
[11] = Therapeutic index, ratio of CC50 for MDCK cells to IC50 for Influenza A virus H1N1; type: cell-based; conditions: dog, read-out: Ratio CC50/IC50
Influenza A virus [12] = assay: Antiviral activity against Influenza A virus H1N1 infected in MDCK cells assessed as inhibition of virus-induced change in cell morphology at 10 ug/ml after 2 days by microscopic analysis; type: functional, organism-based
Influenza A virus [13] = assay: Ratio of zanamivir IC50 to compound IC50 for Influenza A virus H1N1 infected in MDCK cells assessed as inhibition of virus-induced cytopathic effect by SRB assay; type: functional

Compound	Retention_time [1] [min]	inhibition [2]	IC50 (Neuraminidase [3]) [µM]	inhibition [4]	IC50 (Neuraminidase [5]) [µM]	IC50 (Neuraminidase [6]) [µM]	Kiuc [7] [µM]	Ratio IC50 [8]	CC50 [9] [µM]	IC50 (Influenza A virus [10]) [µM]	selectivity ratio [11]	inhibition (Influenza A virus [12])	Ratio IC50 (Influenza A virus [13])
CC1=CC(=O)[C@H](c2c(O)cc(/C=C/c3ccc(O)c(O)c3)oc2=O)[C@@H](c2ccc(O)c(O)c2)O1 [DAVALLIALACTONE]	9	Dose-dependent effect	14.2	Dose-dependent effect	21.8	21.1	27.6	3.6	680	42.8	2.3	Active	–
O=c1cc(O)cc(/C=C/c2ccc(O)c(O)c2)o1 [HISPIDIN]	11.6	Dose-dependent effect	50.9	Dose-dependent effect	16.9	45.2	43	–	> 100	57.9	> 1.7	Active	–
O=c1cc(O)cc([C@H]2c3c(cc(/C=C/c4ccc(O)c(O)c4)oc3=O)O[C@@H]2c2ccc(O)c(O)c2)o1 [HYPHOLOMINE B]	14.5	Dose-dependent effect	22.9	Dose-dependent effect	12.3	14.6	20.9	2.2	> 100	72.8	> 1.4	Active	–
CC1=CC(=O)C2(O1)c1c(cc(/C=C/c3ccc(O)c(O)c3)oc1=O)OC2c1ccc(O)c(O)c1 (configuration not stated) [INOSCAVIN A]	14.9	Dose-dependent effect	20	Dose-dependent effect	18.5	18.5	24.5	2.5	433	22.6	4.4	Active	2.9
O=c1oc2cc(/C=C/c3ccc(O)c(O)c3)oc(=O)c2c2cc(O)c(O)cc12 [PHELLIGRIDIN D]	18.8	Dose-dependent effect	8.8	Dose-dependent effect	10.9	10.3	15.9	5.8	> 100	24.6	> 4.1	Active	–
CC(=O)N[C@H]1[C@H]([C@H](O)[C@H](O)CO)OC(C(=O)O)=C[C@@H]1NC(=N)N [ZANAMIVIR]	–	–	–	–	–	–	–	–	–	0.0647	–	Active	–
